Experimental data as given in US20160046618A1, “Cyclopropyl Fused Thiazin-2-Amine Compounds as Beta-Secretase Inhibitors and Methods of Use” (AMGEN INC., priority 2014, published 2016).

Assays:
[1] = tested on: Aβ40 in conditioned medium of cells stably expressing Amyloid Precursor Protein (APP); assay: In vitro BACE-1 cell-based assay (Aβ40 sandwich ELISA); settings: read-out: IC50 IP (μM) BACE1 cell
Summary of the method: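 Aβ40 in supernatants measured by time-resolved fluorescence sandwich ELISA, with pAb40 as capture and biotin-6E10 as detector antibody, each incubated at 4 °C.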

[2] = biological target: human recombinant BACE2 (Homo sapiens (Human), UniProt Q9Y5Z0); assay: In vitro enzymatic BACE2 FRET assay; assay type: biochemical; settings: read-out: IC50 IP (μM) BACE2 enzyme
Chain of human recombinant BACE2 (Q9Y5Z0 63-518): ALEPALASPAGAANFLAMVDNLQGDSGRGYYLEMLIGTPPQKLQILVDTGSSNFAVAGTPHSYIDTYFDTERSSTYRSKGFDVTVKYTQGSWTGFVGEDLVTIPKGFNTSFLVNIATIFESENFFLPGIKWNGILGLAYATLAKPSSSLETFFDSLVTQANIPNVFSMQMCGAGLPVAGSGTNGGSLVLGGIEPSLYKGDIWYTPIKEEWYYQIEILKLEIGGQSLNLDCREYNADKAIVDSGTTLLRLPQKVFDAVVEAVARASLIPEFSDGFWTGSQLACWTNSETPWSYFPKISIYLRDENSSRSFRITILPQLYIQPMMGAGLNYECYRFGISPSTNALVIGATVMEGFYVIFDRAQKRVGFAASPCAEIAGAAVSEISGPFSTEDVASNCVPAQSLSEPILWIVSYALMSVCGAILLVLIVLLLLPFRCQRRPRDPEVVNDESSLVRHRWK
Summary of the method: (§1)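 Reactions were initiated by adding 50 nM of a peptide carrying fluorophore and quencher on opposite sides of the cleavage site and ran for one hour. Tris buffer then brought the pH to neutrality, ending the reaction, and fluorescence was measured (488 nm excitation, 590 nm emission).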

[3] = biological target: human recombinant BACE1 (Homo sapiens (Human), UniProt P56817); assay: In vitro enzymatic BACE1 FRET assay; assay type: biochemical; settings: read-out: IC50 IP (μM) BACE1 enzyme
Chain of human recombinant BACE1 (P56817 46-501): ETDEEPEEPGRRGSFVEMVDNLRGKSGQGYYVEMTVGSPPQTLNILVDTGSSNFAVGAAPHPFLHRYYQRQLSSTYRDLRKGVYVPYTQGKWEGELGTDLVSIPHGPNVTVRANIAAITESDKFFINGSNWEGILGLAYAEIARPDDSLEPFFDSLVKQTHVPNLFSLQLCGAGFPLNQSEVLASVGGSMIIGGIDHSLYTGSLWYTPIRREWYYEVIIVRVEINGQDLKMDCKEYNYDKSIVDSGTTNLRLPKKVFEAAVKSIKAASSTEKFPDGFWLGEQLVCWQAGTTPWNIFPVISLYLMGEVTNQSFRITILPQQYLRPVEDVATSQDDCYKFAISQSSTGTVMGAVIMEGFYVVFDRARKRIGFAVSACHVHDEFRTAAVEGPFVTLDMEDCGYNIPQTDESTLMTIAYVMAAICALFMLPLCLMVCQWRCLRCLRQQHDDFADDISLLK
Summary of the method: as §1

[4] = biological target: Recombinant Cat D (Homo sapiens (Human), UniProt P07339); assay: In vitro enzymatic Cathepsin D (Cat D) FRET assay; assay type: biochemical; settings: read-out: IC50 IP (μM) CatD
Chain of Recombinant Cat D (P07339 65-412): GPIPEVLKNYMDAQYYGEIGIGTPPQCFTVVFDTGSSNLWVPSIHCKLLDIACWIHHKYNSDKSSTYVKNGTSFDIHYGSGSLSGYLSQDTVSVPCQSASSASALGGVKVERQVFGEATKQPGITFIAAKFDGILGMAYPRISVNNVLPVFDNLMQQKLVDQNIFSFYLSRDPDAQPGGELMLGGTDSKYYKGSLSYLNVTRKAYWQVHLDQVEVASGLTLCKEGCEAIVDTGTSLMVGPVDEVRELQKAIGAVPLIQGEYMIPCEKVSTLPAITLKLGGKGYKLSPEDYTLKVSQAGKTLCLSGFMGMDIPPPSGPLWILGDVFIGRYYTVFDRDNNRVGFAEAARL
Summary of the method: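 Cleavage of a 20 nM FRET peptide by CHO-derived Cat D over 1 h at pH 3.5 (citrate buffer with CHAPS, 10% DMSO final). Endpoint fluorescence is read after Tris quench.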

Row | SMILES | IC50 [1] | IC50 [2] | IC50 [3] | IC50 [4]
1 | NC1=N[C@](CF)(c2cc(NC(=O)c3ccc(Cl)cn3)ccc2F)[C@@H]2C3CSC[C@]32S1 (stereo partly drawn) [Example 753, N-(3-((4S,4aS,7aR)-2-amino-4-(fluoromethyl)-4a,4b,5,7-tetrahydro-4H-thieno[3′,4′:2,3]cyclopropa[1,2-e][1,3]thiazin-4-yl)-4-fluorophenyl)-5-chloropicolinamide] | 0.0964 µM | 0.00304 µM | 0.00339 µM | 420 µM
2 | NC1=N[C@](CF)(c2cc(Nc3nncc4cc(Cl)cnc34)ccc2F)[C@@H]2C[C@@H]2S1 [Example 754, (1S,5S,6S)-5-(5-((3-chloropyrido[2,3-d]pyridazin-8-yl)amino)-2-fluorophenyl)-5-(fluoromethyl)-2-thia-4-azabicyclo[4.1.0]hept-3-en-3-amine] | 0.0781 µM | 0.00588 µM | 0.0454 µM | 844 µM
3 | CCOC(=O)/C=C/[C@]12C[C@H]1[C@@](CF)(c1cc(NC(=O)c3ccc(Cl)cn3)ccc1F)N=C(N)S2 [Example 755, (E)-ethyl 3-((1R,5S,6S)-3-amino-5-(5-(5-chloropicolinamido)-2-fluorophenyl)-5-(fluoromethyl)-2-thia-4-azabicyclo[4.1.0]hept-3-en-1-yl)acrylate] | 0.00838 µM | < 0.00203 µM | 0.00147 µM | 250 µM
4 | NC1=N[C@](CF)(c2cc(NC(=O)c3ccc(Cl)cn3)ccc2F)[C@@H]2C[C@]2(/C=C/CO)S1 [Example 756, N-(3-((1R,5S,6S)-3-amino-5-(fluoromethyl)-1-((E)-3-hydroxyprop-1-en-1-yl)-2-thia-4-azabicyclo[4.1.0]hept-3-en-5-yl)-4-fluorophenyl)-5-chloropicolinamide] | 0.00659 µM | < 0.00203 µM | 0.00373 µM | > 400 µM
5 | NC1=N[C@](CF)(c2cc(NC(=O)c3ccc(Cl)cn3)ccc2F)[C@@H]2C[C@]2(/C=C/C(=O)O)S1 [Example 757, (E)-3-((1R,5S,6S)-3-amino-5-(5-(5-chloropicolinamido)-2-fluorophenyl)-5-(fluoromethyl)-2-thia-4-azabicyclo[4.1.0]hept-3-en-1-yl)acrylic acid] | 0.0498 µM | < 0.00203 µM | 0.000176 µM | 458 µM
6 | NC1=N[C@](CF)(c2cc(NC(=O)c3ccc(Cl)cn3)ccc2F)[C@@H]2C[C@]2(CCCO)S1 [Example 758, N-(3-((1S,5S,6S)-3-amino-5-(fluoromethyl)-1-(3-hydroxypropyl)-2-thia-4-azabicyclo[4.1.0]hept-3-en-5-yl)-4-fluorophenyl)-5-chloropicolinamide] | 0.00195 µM | < 0.00203 µM | 0.00156 µM | 2070 µM
7 | NC(=O)/C=C/[C@]12C[C@H]1[C@@](CF)(c1cc(NC(=O)c3ccc(Cl)cn3)ccc1F)N=C(N)S2 [Example 759, N-(3-((1R,5S,6S)-3-amino-1-((E)-3-amino-3-oxoprop-1-en-1-yl)-5-(fluoromethyl)-2-thia-4-azabicyclo[4.1.0]hept-3-en-5-yl)-4-fluorophenyl)-5-chloropicolinamide] | 0.00265 µM | < 0.00203 µM | 0.00101 µM | > 400 µM
8 | CNC(=O)/C=C/[C@]12C[C@H]1[C@@](CF)(c1cc(NC(=O)c3ccc(Cl)cn3)ccc1F)N=C(N)S2 [Example 760, N-(3-((1R,5S,6S)-3-amino-5-(fluoromethyl)-1-((E)-3-(methylamino)-3-oxoprop-1-en-1-yl)-2-thia-4-azabicyclo[4.1.0]hept-3-en-5-yl)-4-fluorophenyl)-5-chloropicolinamide] | 0.00265 µM | < 0.00203 µM | 0.000415 µM | 779 µM
9 | CN(C)C(=O)/C=C/[C@]12C[C@H]1[C@@](CF)(c1cc(NC(=O)c3ccc(Cl)cn3)ccc1F)N=C(N)S2 [Example 761, N-(3-((1R,5S,6S)-3-amino-1-((E)-3-(dimethylamino)-3-oxoprop-1-en-1-yl)-5-(fluoromethyl)-2-thia-4-azabicyclo[4.1.0]hept-3-en-5-yl)-4-fluorophenyl)-5-chloropicolinamide] | 0.00152 µM | < 0.00203 µM | 0.000794 µM | 364 µM
10 | C#CCOc1cnc2c(Nc3ccc(F)c([C@@]4(CF)N=C(N)S[C@H]5C[C@H]54)c3)nccc2n1 [Example 762, N-(3-((1S,5S,6S)-3-amino-5-(fluoromethyl)-2-thia-4-azabicyclo[4.1.0]hept-3-en-5-yl)-4-fluorophenyl)-2-(2-propyn-1-yloxy)pyrido[3,4-b]pyrazin-5-amine] | 0.0142 µM | 0.0384 µM | 0.00303 µM | 669 µM
11 | NC1=N[C@](CF)(c2cc(Nc3ncnc4cc(OCc5ncco5)cnc34)ccc2F)[C@@H]2C[C@@H]2S1 [Example 763, N-(3-((1S,5S,6S)-3-amino-5-(fluoromethyl)-2-thia-4-azabicyclo[4.1.0]hept-3-en-5-yl)-4-fluorophenyl)-7-(1,3-oxazol-2-ylmethoxy)pyrido[3,2-d]pyrimidin-4-amine] | 0.0048 µM | 0.239 µM | 0.00849 µM | 1110 µM
12 | NC1=N[C@](CF)(c2cc(NC(=O)c3ccc(Cl)cn3)ccc2F)[C@@H]2C[C@]2(/C=C/C(=O)N2CCOCC2)S1 [Example 764, N-(3-((1R,5S,6S)-3-amino-5-(fluoromethyl)-1-((E)-3-morpholino-3-oxoprop-1-en-1-yl)-2-thia-4-azabicyclo[4.1.0]hept-3-en-5-yl)-4-fluorophenyl)-5-chloropicolinamide] | 0.000856 µM | < 0.00203 µM | 0.00073 µM | 518 µM
13 | CN(C)C(=O)CC[C@]12C[C@H]1[C@@](CF)(c1cc(NC(=O)c3ccc(Cl)cn3)ccc1F)N=C(N)S2 [Example 765, N-(3-((1S,5S,6S)-3-amino-1-(3-(dimethylamino)-3-oxopropyl)-5-(fluoromethyl)-2-thia-4-azabicyclo[4.1.0]hept-3-en-5-yl)-4-fluorophenyl)-5-chloropicolinamide] | 0.0011 µM | < 0.00203 µM | 0.000706 µM | 1070 µM
14 | COC1CN(C(=O)/C=C/[C@]23C[C@H]2[C@@](CF)(c2cc(NC(=O)c4ccc(Cl)cn4)ccc2F)N=C(N)S3)C1 [Example 766, N-(3-((1R,5S,6S)-3-amino-5-(fluoromethyl)-1-((E)-3-(3-methoxyazetidin-1-yl)-3-oxoprop-1-en-1-yl)-2-thia-4-azabicyclo[4.1.0]hept-3-en-5-yl)-4-fluorophenyl)-5-chloropicolinamide] | 0.0031 µM | < 0.00203 µM | 0.00105 µM | 848 µM
15 | COCCNC(=O)/C=C/[C@]12C[C@H]1[C@@](CF)(c1cc(NC(=O)c3ccc(Cl)cn3)ccc1F)N=C(N)S2 [Example 767, N-(3-((1R,5S,6S)-3-amino-5-(fluoromethyl)-1-((E)-3-((2-methoxyethyl)amino)-3-oxoprop-1-en-1-yl)-2-thia-4-azabicyclo[4.1.0]hept-3-en-5-yl)-4-fluorophenyl)-5-chloropicolinamide] | 0.00143 µM | < 0.00203 µM | 0.00102 µM | 602 µM
16 | C#CCOc1cnc2c(Nc3ccc(F)c([C@@]4(CF)N=C(N)S[C@@]5(/C=C/C(=O)N(C)C)C[C@H]54)c3)nccc2n1 [Example 768, (2E)-3-((1R,5S,6S)-3-amino-5-(fluoromethyl)-5-(2-fluoro-5-((2-(2-propyn-1-yloxy)pyrido[3,4-b]pyrazin-5-yl)amino)phenyl)-2-thia-4-azabicyclo[4.1.0]hept-3-en-1-yl)-N,N-dimethyl-2-propenamide] | 0.00113 µM | 0.00612 µM | 0.00119 µM | 406 µM
17 | CN(C)C(=O)/C=C/[C@]12C[C@H]1[C@@](CF)(c1cc(Nc3nccc4nc(OCc5ncco5)cnc34)ccc1F)N=C(N)S2 [Example 769, (2E)-3-((1R,5S,6S)-3-amino-5-(fluoromethyl)-5-(2-fluoro-5-((2-(1,3-oxazol-2-ylmethoxy)pyrido[3,4-b]pyrazin-5-yl)amino)phenyl)-2-thia-4-azabicyclo[4.1.0]hept-3-en-1-yl)-N,N-dimethyl-2-propenamide] | 0.00121 µM | 0.023 µM | 0.00143 µM | 224 µM
18 | CC#CCOc1cnc2c(Nc3ccc(F)c([C@@]4(CF)N=C(N)S[C@@]5(/C=C/C(=O)N(C)C)C[C@H]54)c3)nccc2c1 [Example 771, (2E)-3-((1R,5S,6S)-3-amino-5-(5-((3-(2-butyn-1-yloxy)-1,7-naphthyridin-8-yl)amino)-2-fluorophenyl)-5-(fluoromethyl)-2-thia-4-azabicyclo[4.1.0]hept-3-en-1-yl)-N,N-dimethyl-2-propenamide] | 0.00146 µM | 0.0786 µM | 0.00204 µM | 282 µM
19 | NC1=N[C@](CF)(c2cc(NC(=O)c3ccc(Cl)cn3)ccc2F)[C@@H]2C[C@]2(/C=C/C(=O)N2CC(F)(F)C2)S1 [Example 772, N-(3-((1R,5S,6S)-3-amino-1-((1E)-3-(3,3-difluoro-1-azetidinyl)-3-oxo-1-propen-1-yl)-5-(fluoromethyl)-2-thia-4-azabicyclo[4.1.0]hept-3-en-5-yl)-4-fluorophenyl)-5-chloro-2-pyridinecarboxamide] | 0.000972 µM | < 0.00203 µM | 0.000429 µM | 82 µM
